Source: PMC11547576, “Identification of a New Promising BAG3 Modulator Featuring the Imidazopyridine Scaffold” (Molecules, 2024)

Assays:
caspase 3 = assay: Western blot of caspase 3 expression and cleavage; assay type: cell-based, human; details: HeLa cells, 72 h, 50, 30 and 20 µM
Description: Furthermore, we investigated the expressions of caspases, key mediators of programmed cell death, in HeLa cells treated with compound 10 at the same concentrations used in the previous assays. […] To further confirm the pro-apoptotic mechanism induced by compound 10, Western blotting was performed to measure the expression and cleavage of caspase 3 [38, 39].
The HeLa cell line was seeded in 60 mm culture dishes (20 × 104) and treated with compound 10 (50, 30, 20 μM) for 72 h. After treatments, the cells were washed twice, detached with a scraper, and centrifuged for 10 min (400× g, 4 °C) to remove debris. Total proteins were extracted by lysis buffer (20 mM Tris-HCl pH 7.5, 150 mM NaCl, 1 mM Na2EDTA, 1 mM EGTA, 2% NP-40, 1% sodium deoxycholate, 1× protease, and phosphatase inhibitor cocktail) for 30 min. […] Protein concentration was determined by the Bradford assay using bovine serum albumin as standard. […]
After washes in PBS/Tween-20 0.1% the appropriate anti-rabbit or anti-mouse (1:5000, Pierce, Thermo Fisher Scientific) peroxidase-linked secondary antibody was added for 1 h at room temperature. Antigen–antibody complexes were detected through enhanced chemiluminescence using LAS 4000 (GE Healthcare, Chicago, IL, USA) and a densitometry analysis of the autoradiographs was performed by using the ImageJ program, version 1.47 [38, 39]. […]

HeLa cells = assay: MTT cell viability assay on HeLa cells; assay type: cell-based; details: Homo sapiens, 72 h
Description: Elevated expression levels of BAG3 are strongly associated with signaling pathways in various types of malignant cells; consequently, reducing the activity of this co-chaperone inhibits cell proliferation, triggers apoptosis, and induces cell cycle arrest. To assess the activity of compounds 10, 12, and 14, cytotoxicity assays were performed on HeLa cells, which were chosen for their tendency to overexpress BAG3 proteins. MTT assays were conducted by exposing HeLa cells to different concentrations of the compounds (25, 50, and 100 µM) for 72 h. Additionally, 10% DMSO was used as a positive control, while 0.1% DMSO served as a negative control. […] The next step involved the assessment of the cytotoxicity of the most promising candidate, 10, on healthy cells to determine its safety profile. To achieve this, MTT assays were conducted on HaCat cells over 72 h.
Human cervical carcinoma cell lines (HeLa, kindly donated by Prof. Ornella Moltedo, Department of Pharmacy, University of Salerno) and immortalized human keratinocytes (HaCaT) were cultured in a DMEM/high glucose medium. This medium was supplemented with 10% FBS (v/v), 2 mM/L glutamine, 100 U/mL penicillin, and […] streptomycin. The cells were maintained at 37 °C in a humidified atmosphere with 5% CO2. To ensure logarithmic growth, the cells were sub-cultured every 2 days.
Cell viability was assessed by measuring mitochondrial metabolic activity using a colorimetric assay, which involves the reduction of 3-[4,5-dimethylthiazol-2,5-diphenyl-2H-tetrazolium bromide (MTT) to purple formazan. Stock solutions of compounds 10, 12, and 14 (50 mM in DMSO) were stored at −20 °C in the dark and diluted just before being added to the sterile culture medium. Briefly, HeLa cells (3.5 × 10^3 cells/well) were seeded in triplicate in 96-well plates, and after 24 h, to allow for attachment, the cells were treated with various concentrations of the tested compounds (25, 50 and 100 μM), 0.1% (v/v) DMSO as a negative control, and 10% (v/v) DMSO as a positive control for 72 h. Following treatment, 20 μL of MTT (5 mg/mL in PBS) was added to each well, and the cells were incubated for an additional 3 h at 37 °C. The formazan crystals formed were then dissolved in 100 μL of a buffer containing 50% (v/v) N, N-dimethylformamide and 20% SDS (pH 4.5). Absorbance was measured at 570 nm using a Multiskan™ GO Microplate Spectrophotometer (Thermo Fisher Scientific, Waltham, MA, USA,). […] The IC50 values, representing the concentration causing 50% inhibition of cell survival, were calculated and compared to control cells treated with DMSO using GraphPad Prism 8.0 software through nonlinear regression of dose–response inhibition. Only for compound 10 was the IC50 also assessed on HaCaT cells (5.0 × 10^3 cells/well) after 72 h of treatment.

Compound: CC(C)Nc1c(-c2ccccc2Br)nc2ccc(Cl)cn12 [Compound 10, 2-(2-bromophenyl)-6-chloro-N-isopropylimidazo[1,2-a]pyridin-3-amine]
- expression of procaspase 3 (caspase 3): increased expression of procaspase 3
- levels of cleaved caspase 3 (caspase 3): elevated levels of cleaved caspase 3 in a dose-dependent manner
- mortality at 25 µM (HeLa cells; 25 µM): 50%
- mortality at 100 µM (HeLa cells; 100 µM): > 90%
- IC50 (HeLa cells; seven concentrations (1 to 100 µM)): 25.1 ± 2.67 µM
